Assay results taken from patent publication US20240316079A1, “USE OF AKR1C3-ACTIVATED COMPOUND” (OBI PHARMA, INC., priority 2021, published 2024).
Where two headings read alike, the source gives them in different places.

What was measured:
H460 cells [1] = experiment: Comet assay for DNA cross-linking; type: cell-based, human
Protocol: After seeding cells for 24 hours, the test articles were added at the indicated concentrations and incubated for 2 hours. Cells were washed twice to remove compound completely. 20 μmol/L of bleomycin was added and incubated for 1 hour under air to induce DNA strand breaks following 2 h cell resting. After washing twice with PBS, comet assay was conducted using a single-cell electrophoresis system from Trevigen (Gaithersburg, MD). The data were analyzed using Comet Assay IV software from Perceptive Instruments (29).
To evaluate whether 3424 cross-linked DNA, a direct biochemical assay for DNA cross-linking, the single-cell electrophoresis-based comet assay was employed using H460 cells. In this assay, the racemic mixture, 2870, was used. […] Bleomycin was used to induce DNA strand breaks which was evident by increased tail moment to 35. 2870-induced DNA cross-linking was tested using three concentrations under identical conditions that were used for bleomycin. Compound 2870-induced concentration-dependent DNA-crosslinking was evident by a decreased tail moment from 36 to 1.6.

H460 cells [2] = experiment: Cytotoxicity in H460 cells in the absence or presence of AKR1C3 inhibitor 3021; settings: Homo sapiens, NCI-H460, 2 h, read-out: IC50 (cytotoxicity)
Protocol: Exponentially growing cells were seeded 24 hours before the addition of test compounds. After addition of test compounds, the plates were incubated for the indicated hours at 37° C. in a standard tissue culture incubator. At the end of the experiment, the viable cells were detected using either a CellTiter Glo (CTG) assay kit or AlamarBlue^(28,29). […] For 3021 experiments, cells were pretreated with 3 μM of 3021 for 2 h prior to compound treatment under air. IC50 was calculated as described above.

recombinant human AKR1C3 = biological target: T1, recombinant human AKR1C3 (Homo sapiens, UniProt P42330); experiment: Kinetic analysis of AKR1C3 towards various substrates (NADPH absorbance 340 nm); type: biochemical; settings: substrate of AKR1C3, 25° C., triplicate
T1 construct: purchased Abcam (Cambridge, MA)
T1 sequence (P42330 1-323): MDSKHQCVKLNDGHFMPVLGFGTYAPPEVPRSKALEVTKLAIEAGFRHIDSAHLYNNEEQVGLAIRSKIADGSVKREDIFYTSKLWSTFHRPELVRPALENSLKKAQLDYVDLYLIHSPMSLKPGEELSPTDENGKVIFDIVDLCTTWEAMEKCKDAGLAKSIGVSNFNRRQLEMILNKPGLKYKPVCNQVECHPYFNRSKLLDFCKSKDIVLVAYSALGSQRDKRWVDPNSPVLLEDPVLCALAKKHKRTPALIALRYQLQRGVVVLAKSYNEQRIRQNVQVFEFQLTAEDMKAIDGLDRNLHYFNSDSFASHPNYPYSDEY
Protocol: The reaction was incubated at 25° C. and terminated at various time points by adding acetonitrile and methanol (at a ratio of 9 to 1) and subjected for LC-MS/MS analysis. For enzyme kinetic analysis, the activity was determined with a SpectraMax M2^e spectrophotometer (Molecular Devices, LLC, San Jose, CA) by measuring the decrease in absorbance of the NADPH at 340 nm (E=6270 M^−1 cm^−1). After the initiation of the reaction by addition of substrates, the reactions were monitored at 30 s intervals at 25° C. The non-substrate reaction rate was also monitored as background and its slope was used to determine the initial velocity of the reaction. The kinetic data reported were the average of triplicate measurements.

SNU-16 xenograft = settings: 5-FU 30 mg/kg IP twice a week
Protocol: (§1) Death and observed clinical signs were recorded on the basis of the numbers of animals within each subset.

[3] = test system: HepG2 orthotopic xenograft; type: in vivo, mice; settings: sorafenib 30 mg/kg orally, QD×5×7 cycles; no statistical significance
Protocol: (§2) In vivo anti-tumor activity of 3424 was evaluated using GFP-expressing cancer cell lines in an orthotopic liver cancer model (HepG2) and a subcutaneous lung cancer model (H460) CDX models at AntiCancer, Inc (Beijing, China). Female athymic nude mice (6 weeks; BALB/c-nu, Beijing HFK Bioscience Co., Ltd., Beijing, China) were used in the studies. Each mouse was implanted with a HepG2-GFP tumor chunk (˜1 mm^3 in diameter) in the right lobe of the liver for tumor development or inoculated subcutaneously with H460-GFP tumor chunk (˜1 mm^3 in diameter). About 3-10 days later, whole mouse body scan was performed using FluorVivo Model-100 fluorescence imager (INDEC Biosystems, Inc., Los Altos, CA). Mice with similar fluorescent areas were selected and randomly grouped. Both cell lines expressed high level of AKR1C3. Prodrug 3424 was dosed intravenously (IV) at 1.25, 2.5 mg/kg or 5 mg/kg Q7D×2 for the HepG2 orthotopic model or at 0.625, 1.25 or 2.5 mg/kg for the H460 xenograft model with a regimen of Q7D×2, 1 week off, then Q7D×2 again. Sorafenib was used as the positive control in the HepG2 model and was dosed orally at 30 mg/kg with a regimen of QD×5×7 cycles. Taxol was used as the positive control in the H460 model and was administered at 15 mg/kg IV with a regimen of BIW×4. During the experiments, mice were observed daily and body weight was measured twice a week. Tumor burden was monitored twice a week either by caliper measurement (H460) or FluorVivo fluorescence imager (H460-GFP and HepG2-GFP).

A498 xenograft = test system: A498 xenograft
Protocol: as §1

[4] = test system: H460 subcutaneous xenograft; type: in vivo, mice; settings: paclitaxel 15 mg/kg IV BIW×4
Protocol: as §2

In the case of `CC(OP(=O)(N1CC1)N1CC1)c1ccc([N+](=O)[O-])c(Oc2cccc(C(=O)N(C)C)c2)c1` (racemic) [Compound 2870, 1-(3-(3-N,N-dimethylaminocarbonyl)phenoxyl-4-mtrophenyl)-1-ethyl-N,N′-bis(ethylene)phosphoramidate], the tail moment (H460 cells [1]; 2870 at three concentrations, 2 hours, then bleomycin, decreased from 36, concentration-dependent DNA cross-linking) is reported as 1.6 and the IC50 (H460 cells [2]) is reported as 4 nM.
`C[C@]12CCC(=O)C=C1CC[C@@H]1[C@@H]2CC[C@]2(C)C(=O)CC[C@@H]12` [4-Androstenedione, 4-androstenedione, reference compound] showed a Kcat (recombinant human AKR1C3) of 0.07 ± 0.01 min⁻¹ and a Km (recombinant human AKR1C3) of 1.98 ± 0.43 µM.
In the case of `C[C@]12CCC(=O)C[C@@H]1CC[C@@H]1[C@@H]2CC[C@]2(C)[C@@H](O)CC[C@@H]12` [5^α-DHT, dihydrotestosterone, reference compound], the Kcat (recombinant human AKR1C3) is reported as 0.12 ± 0.00 min⁻¹ and the Km (recombinant human AKR1C3) is reported as 10.2 ± 0.62 µM.
In the case of `O=c1[nH]cc(F)c(=O)[nH]1` [Compound 5-FU, 5-fluorouracil, reference compound], the anti-tumor activity (SNU-16 xenograft) is reported as “no anti-tumor activity”.
`C[C@@H](OP(=O)(N1CC1)N1CC1)c1ccc([N+](=O)[O-])c(Oc2cccc(C(=O)N(C)C)c2)c1` [Compound 3423, (R)-1-(3-(3-N,N-dimethylaminocarbonyl)phenoxyl-4-mtrophenyl)-1-ethyl-N,N′-bis(ethylene)phosphoramidate] was tested, and the Kcat (recombinant human AKR1C3) was 0.72 ± 0.04 min⁻¹, the Km (recombinant human AKR1C3; read-out: Km) was 12.9 ± 1.71 µM and the IC50 (H460 cells [2]) was 5 nM.
In the case of `CNC(=O)c1cc(Oc2ccc(NC(=O)Nc3ccc(Cl)c(C(F)(F)F)c3)cc2)ccn1` [Sorafenib, reference compound], the “tumor growth reduction (TGI)” value [3] is reported as 52.1%.
With `Nc1ccn([C@@H]2O[C@H](CO)[C@@H](O)C2(F)F)c(=O)n1` [gemcitabine, reference compound] the TGI (A498 xenograft; gemcitabine 80 mg/kg weekly IP for 4 doses) was 19%.
`CC(=O)O[C@H]1C(=O)[C@@]2(C)[C@H]([C@H](OC(=O)c3ccccc3)[C@]3(O)C[C@H](OC(=O)[C@H](O)[C@@H](NC(=O)c4ccccc4)c4ccccc4)C(C)=C1C3(C)C)[C@]1(OC(C)=O)CO[C@@H]1C[C@@H]2O` [paclitaxel, reference compound] was tested, and the TGI [4] was 64%.
`CCN(CC)CCNC(=O)c1c(C)[nH]c(/C=C2\C(=O)Nc3ccc(F)cc32)c1C` [sunitinib, reference compound] gave a TGI (A498 xenograft; sunitinib 25 mg/kg daily oral gavage) of 52%.
In the case of bleomycin [reference compound], the tail moment (H460 cells [1]; bleomycin used to induce DNA strand breaks (20 μmol/L, 1 hour)) is reported as 35.
